Where only a bound is given, the exact number is not on record here.

The experiment addresses T1, human calcitonin-2 receptor (hCT2R) (Homo sapiens, UniProt P30988).
T1 construct: expressed in transfected cells; host or cells: Chinese hamster ovary (CHO) cells co-transfected with a 6CRE-luciferase reporter; receptor cDNA cloned from the MCF7 cell line
T1 sequence (P30988 25-474): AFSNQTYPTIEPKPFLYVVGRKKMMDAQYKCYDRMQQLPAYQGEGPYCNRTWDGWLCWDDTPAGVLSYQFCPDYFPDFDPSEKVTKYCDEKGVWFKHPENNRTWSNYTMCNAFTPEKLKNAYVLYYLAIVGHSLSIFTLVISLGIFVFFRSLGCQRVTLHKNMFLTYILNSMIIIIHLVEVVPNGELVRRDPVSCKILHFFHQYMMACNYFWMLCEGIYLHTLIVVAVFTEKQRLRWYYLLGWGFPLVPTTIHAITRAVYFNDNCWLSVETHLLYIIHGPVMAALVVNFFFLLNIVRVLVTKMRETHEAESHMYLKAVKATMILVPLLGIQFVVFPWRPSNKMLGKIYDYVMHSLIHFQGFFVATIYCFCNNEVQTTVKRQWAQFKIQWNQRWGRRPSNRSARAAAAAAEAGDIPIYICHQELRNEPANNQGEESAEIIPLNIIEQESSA
Description: HCT2R CRE-luc reporter assay. It is filed as cell-based. The settings on record: agonist activity; CHO-6CRE-luciferase cells co-transfected with hCT2R. The procedure:
The compounds of the present invention elicit important and measurable pharmacological responses. As is to be expected, the efficacy of any compound will vary depending upon the particular assay and the particular compound tested.
All recombinant cell line human calcitonin receptor assays were carried out with the human receptor corresponding to GeneBank Accession Number X69920, [See: Molecular Pharmacology 46 (2):246–255, 1994, Cloning and characterization of an abundant subtype of the human calcitonin receptor] cloned from the MCF7 cell line (American Type Tissue Collection, Manassas, Va., USA, Catalog # HTB-22). Human calcitonin receptor (hCT2R) was cloned as a HindIII fragment into plasmid BS SKII. Chinese hamster ovary cells were co-transfected with a 6CRE-luciferase reporter system and hCTR2. HEK cells were transfected with hCTR2.
CHO-6CRE-luciferase cells with or without co-expressed hCTR2 were grown in suspension in commercially available cell culture medium supplemented with 2 mM L-glutamine and 5% fetal bovine serum (FBS). Sixteen hours before each assay, cells were collected and resuspended at 1,000,000 cells/ml in media without FBS. Cells were cultured in spinner flasks at 37° C. in an atmosphere of 5% CO2. At the time of the assay, cells were pelleted by centrifugation and resuspended in media without FBS at a concentration of 250,000 cells/ml. The cell suspension was pipetted into black 96-well microtiter plates (25,000 cells/well) containing test compounds. After a four-hour incubation at 37° C., media was aspirated, followed by addition of 50 microliters of LucLite and PBS (1:1) containing 1 mM CaCl2 and 1 mM MgCl2. The plates were sealed and incubated for 20 minutes in the dark. Luminescent responses were measured using a Packard TopCount.
Structure activity studies were performed on CHO-6CRE-luciferase cells with or without co-transfected hCT2R. Forty-eight hours before each assay, cells were removed with trypsin and plated in 96-well microtiter plates at a concentration of 25–100,000 cells/well. Sixteen hours before each assay, FBS-containing media was removed and replaced with media without FBS. Compounds were added and incubated for four hours at 37° C. After incubation, media was aspirated and 50 microliters of LucLite in PBS (1:1) containing 1 mM CaCl2 and 1 mM MgCl2 were added to each well. Plates were sealed and incubated for 20 minutes in the dark before quantification of luminescence on a Packard TopCount.
Concentration-response curves were calculated and potencies were reported as the concentration of compounds producing half-maximal responses (EC50) or the negative log of the concentration of compounds producing half-maximal responses (pEC50).
Background: A reporter such as luciferase makes a cellular process visible.
`CCOC(=O)c1c(CCc2ccc(F)cc2)nc2c(c1-c1cc(C(=O)NC3CCc4ccccc43)cs1)C(=O)N1CCC[C@@H]21` (stereo partly drawn) [Example 15, Ethyl(9aS)-4-{4-[(2,3-dihydro-1H-inden-1-ylamino)carbonyl]-2-thieny}-2-[2-(4-fluorophenyl)ethyl]-5-oxo-7,8,9,9a-tetrahydro-5H-pyrido[2,3-a]pyrrolizine-3-carboxylate]: the EC50 – broadly, the concentration giving half of the maximal effect – is not above 10 nM.

For `CCOC(=O)c1c(CCc2ccc(F)cc2)nc2c(c1-c1ccc(C(=O)N[C@@H]3CCc4ccccc43)cc1[N+](=O)[O-])C(=O)N1CCC[C@@H]21` [Example 53, Ethyl (9aS)-4-(4-{[(1R)-2,3-dihydro-1H-inden-1-ylamino]carbonyl}-2-nitrophenyl)-2-[2-(4-fluorophenyl)ethyl]-5-oxo-7,8,9,9a-tetrahydro-5H-pyrido[2,3-α]pyrrolizine-3-carboxylate], the 50% effective concentration (EC50) fell in the range of 10 to 100 nM.

As to `CCOC(=O)C1=C(CCc2ccc(C(F)(F)F)cc2)Nc2c(c(=O)n3n2CCC3)C1c1ccc(C(=O)N[C@@H]2CCc3ccccc32)cc1` (stereo partly drawn) [Example 61, Ethyl 4-(4-{[(1R)-2,3-dihydro-1H-inden-1-ylamino]carbonyl}phenyl)-5-oxo-2-{2-[4-(trifluoromethyl)phenyl]ethyl}-1,5,8,9-tetrahydro-4H,7H-pyrazolo[1′,2′:1,2]pyrazolo[3,4-b]pyridine-3-carboxylate], the EC50 lay in the range of 10 to 100 nM.

In the case of `CCOC(=O)c1c(CCc2ccc(F)cc2)nc2c(c1-c1ccc(C(=O)N[C@@H](C)c3ccncc3)c(F)c1)C(=O)N1CCC[C@@H]21` [Example 52, Ethyl (9aS)-2-[2-(4-fluorophenyl)ethyl]-4-[3-fluoro-4-({[(1S)-1-(4-pyridinyl)ethyl]amino}carbonyl)phenyl]-5-oxo-7,8,9,9a-tetrahydro-5H-pyrido[2,3-α]pyrrolizine-3-carboxylate], the EC50 lay within 10 to 100 nM.

With `CCOC(=O)c1c(CCc2ccc(C(F)(F)F)cc2)nc2c(c1-c1ccc(CNC(=O)c3cccnc3)s1)C(=O)N1CCC[C@@H]21` [Example 47, Ethyl (9aS)-5-oxo-4-(5-{[(3-pyridinylcarbonyl)amino]methyl}-2-thienyl)-2-{2-[4-(trifluoromethyl)phenyl]ethyl}-7,8,9,9a-tetrahydro-5H-pyrido[2,3-α]pyrrolizine-3-carboxylate], the EC50 is 10 to 100 nM.

Consider `CCOC(=O)c1c(Cc2ccc(F)cc2F)nc2c(c1-c1ccc(C(=O)NCc3ccco3)cc1)C(=O)N1CCC[C@@H]21` [Example 6, Ethyl (9aS)-2-(2,4-difluorobenzyl)-4-(4-{[(2-furylmethyl)amino]carbonyl}phenyl)-5-oxo-7,8,9,9a-tetrahydro-5H-pyrido[2,3-α]pyrrolizine-3-carboxylate], for which the concentration for a half-maximal effect (EC50) was in the range of 10 to 100 nM.

Turning to `CCOC(=O)c1c(CCC(F)(F)F)nc2c(c1-c1ccc(C(=O)N[C@@H]3CCc4ccccc43)cc1)C(=O)N1CCC[C@@H]21` [Example 44, Ethyl (9aS)-4-(4-{[(1R)-2,3-dihydro-1H-inden-1-ylamino]carbonyl}phenyl)-5-oxo-2-(3,3,3-trifluoropropyl)-7,8,9,9a-tetrahydro-5H-pyrido[2,3-α]pyrrolizine-3-carboxylate], the half-maximal effective concentration (EC50) was in the range of 10 to 100 nM.

Take `CCC(=O)Nc1c(CCc2ccc(C(F)(F)F)cc2)nc2c(c1-c1ccc(C(=O)NCc3ccco3)cc1)C(=O)N1CCC[C@@H]21` [Example 25, 4-((9aS)-3-[(Ethylcarbonyl)amino]-5-oxo-2-{2-[4-(trifluoromethyl)phenyl]ethyl}-7,8,9,9a-tetrahydro-5H-pyrido[2,3-α]pyrrolizin-4-yl)-N-(2-furylmethyl)benzamide]: the EC50 lay within 100 to 1000 nM.

Consider `CCOC(=O)c1c(CCc2ccc(F)cc2)cc2c(c1-c1ccc(C(=O)O)cc1)C(=O)N1CCC[C@@H]21` [Example 49, 4-{(9bS)-7-(ethoxycarbonyl)-8-[2-(4-fluorophenyl)ethyl]-5-oxo-2,3,5,9b-tetrahydro-1H-pyrrolo[2,1-α]isoindol-6-yl}benzoic acid], for which the EC50 is not below 1000 nM.

Take `CC(=O)c1c(CCc2ccc(F)cc2)nc2c(c1-c1ccc(C(=O)NCc3ccco3)cc1)C(=O)N1CCC[C@@H]21` [Example 29, 4-{(9aS)-3-acetyl-2-[2-(4-fluorophenyl)ethyl]-5-oxo-7,8,9,9a-tetrahydro-5H-pyrido[2,3-α]pyrrolizin-4-yl}-N-(2-furylmethyl)benzamide]: the 50% effective concentration (EC50) was in the range of 10 to 100 nM.

`CCOC(=O)c1c(CCc2ccc(F)cc2)nc2c(c1-c1cc(Br)cs1)C(=O)N1CCC[C@@H]21` [Example 56, Ethyl (9aS)-4-(4-bromo-2-thienyl)-2-[2-(4-fluorophenyl)ethyl]-5-oxo-7,8,9,9a-tetrahydro-5H-pyrido[2,3-α]pyrrolizine-3-carboxylate]: the EC50 was 100 to 1000 nM.

In the case of `CCOC(=O)c1c(Cc2ccc(F)cc2)nc2c(c1-c1ccc(CNC(=O)c3ccccc3)s1)C(=O)N1CCC[C@@H]21` [Example 46, Ethyl (9aS)-4-{5-[(benzoylamino)methyl]-2-thienyl}-2-(4-fluorobenzyl)-5-oxo-7,8,9,9a-tetrahydro-5H-pyrido[2,3-α]pyrrolizine-3-carboxylate], the EC50 is 100 to 1000 nM.

`CCOC(=O)c1c(CCc2ccc(F)cc2)nc2c(c1-c1cc(C(=O)NC3CCc4ccccc43)co1)C(=O)N1CCC[C@@H]21` (stereo partly drawn) [Example 17, Ethyl(9aS)-4-{4-[(2,3-dihydro-1H-inden-1-ylamino)carbonyl]-2-furyl}-2-[2-(4-fluorophenyl)ethyl]-5-oxo-7,8,9,9a-tetrahydro-5H-pyrido[2,3-a]pyrrolizine-3-carboxylate]: the EC50 is not above 10 nM.

`CCOC(=O)c1c(Cc2ccc(F)cc2)nc2c(c1-c1ccc(C(=O)NN3CCc4ccccc43)cc1)C(=O)N1CCC[C@@H]21` [Example 55, Ethyl (9aS)-4-{4-[(2,3-dihydro-1H-indol-1-ylamino)carbonyl]phenyl}-2-(4-fluorobenzyl)-5-oxo-7,8,9,9a-tetrahydro-5H-pyrido[2,3-α]pyrrolizine-3-carboxylate]: the EC50 was 10 to 100 nM.

Take `O=C(N[C@@H]1CCc2ccccc21)c1ccc(-c2c3c(nc4c2C(=O)N2CCC[C@@H]42)CC(c2ccc(F)cc2)CC3=O)cc1` (stereo partly drawn) [Example 32, 4-[(3aS)-6-(4-Fluorophenyl)-8,10-dioxo-2,3,3a,5,6,7,8,10-octahydro-1H-pyrrolizino[1,2-b]quinolin-9-yl]-N-[(1R)-2,3-dihydro-1H-inden-1-yl]benzamide]: the 50% effective concentration (EC50) is not below 1000 nM.

With `CCOC(=O)c1c(CCc2ccc(OC)cc2)nc2c(c1-c1ccc(C(=O)NCc3ccco3)cc1)C(=O)N1CCC[C@H]21` [Example 1, Ethyl (9aR)-4-(4-{[(2-furylmethyl)amino]carbonyl}phenyl)-2-[2-(4-methoxyphenyl)ethyl]-5-oxo-7,8,9,9a-tetrahydro-5H-pyrido[2,3-α]pyrrolizine-3-carboxylate], the EC50 fell in the range of 10 to 100 nM.

`CCOC(=O)c1c(CCc2ccc(F)cc2)cc2c(c1-c1ccc(C(=O)NCc3ccco3)cc1)C(=O)N1CCC[C@@H]21` [Example 50, Ethyl (9bS)-8-[2-(4-flurophenyl)ethyl]-6-(4-{[(2-furylmethyl)amino]carbonyl}phenyl)-5oxo-2,3,5,9b-tetrahydro-1H-pyrrolo[2,1-α]isoindole-7-carboxylate]: the half-maximal effective concentration (EC50) was not below 1000 nM.

For the compound “Ethyl (9aS)-4-(4-{[(2-furylmethyl)amino]carbonyl}phenyl)-5-oxo-2-[2-(3-pyridinyl)ethyl]-7,8,9,9a-tetrahydro-5H-pyrido[2,3-α]pyrrolizine-3-carboxylate [Example 33]”, the concentration for a half-maximal effect (EC50) was in the range of 10 to 100 nM.

For `O=C(N[C@@H]1CCc2ccccc21)c1ccc2c(c1)[nH]c(=O)c1c(Cc3ccc(F)cc3)nc3c(c12)C(=O)N1CCC[C@@H]31` [Example 58, (8bS)-N-[(1R)-2,3-dihydro-1H-inden-1-yl]-7-(4-fluorobenzyl)-6,13-dioxo-5,8b,9,10,11,13-hexahydro-6H-benzo[c]pyrroizino[2,1-f][2,7]naphthyridine-3-carboxamide], the concentration giving a half-maximal response (EC50) is 100 to 1000 nM.
